Results on one molecule are retold here after patent publication US20140378551A1, “Composition for the Prophylactic Treatment of Neuropathic Pain” (Universite d'Auvergne, priority 2011, published 2014).

Like-named read-outs stand apart in the source and are kept apart here.

For assay [1], the system named is neuropathic pain in patients. The note with it: cited from earlier work.
Assay [2] relates to neuropathic pain induced by spinal nerve ligation among rats. The assay is described as follows: Y-Maze test: spatial memory, spinal nerve ligation model. It counts as in vivo, rat. The protocol:
The effects of the prolonged and preventive administration of memantine were first of all studied among rats. The model used was that of the ligation of the spinal nerve L5 (herein after called SNL for spinal nerve ligation) among rats. The emergence of neuropathic pain is assessed according to the following criteria: • the behavior of the rat following the spinal nerve ligation (SNL), • cognition, and • molecular events, including the expression of phosphorylated tyrosine 1472 of the NR2B sub-unit of the NMDA receptor at the spinal level.
The study was based on the comparison of the two main groups of animals. The first group was a control group. The rats of the control group, designated as “Sham” in the graphs, underwent no operation. They are used to assess the role of the injected substances on the individual, without there being any emergence of neuropathic pain.
Two sub-groups were set up in this group: • one sub-group treated with the vehicle which is a saline solution of NaCl 0.9% by mass, in a dose of 1 mL/kg/rat/day, by intraperitoneal injection; and • one sub-group treated with memantine in a dose of 20 mg/kg/rat/day, by intraperitoneal injection. […]
The rat is placed in the middle of a chamber with three arms, each 40 cm long and 4 cm wide. The rat moves around freely in the different arms for five minutes and the number of entries into each of the arms is counted up. […]

Assay [3] concerns neuropathic pain in rats. The note with it: sciatic nerve ligature or formalin injection, administered during or after the operation (Eisenberg 1995; Carlton 1995), cited from earlier work.
The subject of assay [4] is post-operative neuropathic pain. The assay is described as follows: Phase 2 clinical trial, pain self-evaluation after mastectomy and axillary dissection. It is filed as in vivo, human. The note with it: follow-up after operation, self-evaluation scale 1 to 10; preliminary results. The protocol:
A phase 2 clinical trial on the development and evaluation of neuropathic pain was conducted among patients having to undergo mastectomy and axillary dissection. The patients were separated randomly into two groups: • a control group who were to receive lactose as a placebo; and • a group treated by memantine hydrochloride (EBIXA®).
The clinical trial protocol is described in detail in the form referenced NTC014536314 (http://clinicaltrials.gov). […]
The patient's pain was evaluated by asking them to assess their own pain on a numerical scale ranging from 1 to 10 (10 being the maximum stage of pain) for the two weeks following the operation and for three months following the operation. […] The development of neuropathic pain is also evaluated by the DN4 questionnaire on neuropathic pain, and the Questionnaire sur la Douleur de Saint-Antoine (QDSA) or “Saint-Antoine pain questionnaire”. […]
FIG. 7 is a graph showing the preliminary results obtained on the first […] having taken part in these clinical trials (six patients had received the placebo composition and seven patients had received the memantine-hydrochloride-based composition), their pain being evaluated by the method of self-evaluation on a scale of 1 to 10. […]

Take `CC12CC3CC(C)(C1)CC(N)(C3)C2` [memantine, 1-amino-3,5-dimethyl-adamantane]: the “relief to patients with amputated limb or nerve lesions following surgery” value in assay [1] (Nikolajsen et al., 2000) was “inefficacious”. Moreover, the “effect in patients who had undergone amputation” value in assay [1] (administered just after the operation (Buvanendran et al, 2008)) is “beneficial effect”. Further, the “capacity of exploration (time passed in exploring the arms)” value in assay [2] (SNL rats, memantine for the 4 days preceding operation and days following) was “this capacity is restored”; in assay [2] (rats without ligation, injection for one week, compared with normal rats), “does not significantly modify the capacity of exploration of the rat”. Moreover, the “development of neuropathic pain in rats” value in assay [3] is “limits the appearance of symptoms of neuropathic pain but only dose-dependently and only for a determined period of time”; in assay [3] (listed as Memantine), “positive effect in the development of neuropathic pain in rats”. Further, the “level of pain versus placebo” value in assay [4] is recorded as “patients having received the placebo have a higher level of pain than patients having received memantine”.
